In one data set the test system is EpiAirway. The data set can be described thus: Insulin tissue permeation across EpiAirway, ELISA. Type of data set: in vitro ADME. To be noted: in vitro study 3; Tween-containing formulations. (In an ELISA, binding on a coated surface is turned into a signal by an enzyme label.)
Data set [1] can be described thus: Rabbit pharmacokinetics (serum insulin) after IN, SC, IV or oral insulin. The data set is classed as in vivo, ニュージーランド白色ラビット. To be noted: PK study 2.
Another data set concerns 黄色ブドウ球菌、クロカビ、緑膿菌. Kind of data set: Antimicrobial effectiveness test (AET), USP and EP requirements. To be noted: for AET result against EP requirements / AET result against USP requirements: insulin nasal spray formulations (placebo or active); for Preservative / antimicrobial effectiveness: in insulin nasal spray formulations, neutral pH.
Data set [2] in a line: Compatibility of preservative with insulin (precipitation). To be noted: presence in formulation caused insulin precipitation. The data set is classed as physicochemical.
The subject of the next data set is グルコース. The data set can be described thus: Human PD clinical study, glucose by glucometer. Type of data set: in vivo, ヒト. To be noted: intranasal administration.

Regarding `CCCCCCCCCC(=O)OC[C@H](COP(=O)([O-])OCC[N+](C)(C)C)OC(=O)CCCCCCCCC` [DDPC, L−α−ホスファチジルコリンジデカノイル], the “Effect of removing the excipient from the formulation on insulin permeation” value in the data set on EpiAirway is listed as “影響を有しなかった”. Further, in data set [1], the “Effect of removing DDPC on BA(%), Cmax and AUClast” value is “減少した”. With `O=C([O-])CN(CCN(CC(=O)[O-])CC(=O)O)CC(=O)O.[Na+].[Na+]` [EDTA, エデト酸二ナトリウム], in the data set on 黄色ブドウ球菌、クロカビ、緑膿菌, the “AET result against EP requirements” value is on record as “有効であるとは思われなかった” and the “AET result against USP requirements” value was “有効であるとは思われなかった”. Take `Cc1cccc(O)c1` [m−クレゾール]: in the data set on 黄色ブドウ球菌、クロカビ、緑膿菌, the “Preservative / antimicrobial effectiveness” value was “有効な防腐剤ではなかった”. On the same count and under the same terms, the result for `CC(C)CC(N)B(O)O` (stereo not drawn) [ベンジルアルコール] reads “有効な防腐剤ではなかった and 無効”. Turning to `CC(C)CC(N)B(O)O` (stereo not drawn) [塩化ベンズアルコニウム], in the data set with 黄色ブドウ球菌、クロカビ、緑膿菌, the “Preservative / antimicrobial effectiveness” value is “最良の抗菌性能”, the “AET result against EP requirements” value was “優れた防腐剤” and the “AET result against USP requirements” value was “優れた防腐剤”. Moreover, the Compatibility with insulin result in data set [2] was “不適合性”. Take `CC(C)CC(N)B(O)O` (stereo not drawn) [安息香酸ナトリウム]: in the data set with 黄色ブドウ球菌、クロカビ、緑膿菌, the “Preservative / antimicrobial effectiveness” value was “有効な防腐剤ではなかった”. On to “インスリン: recombinant native-sequence human insulin”, for which the “Reduction of glucose (%) in patients” value in the data set with グルコース is listed as “有効”.

The record behind these values is JP2009512709A, “速効型インスリンの経鼻投与” (エムディーアールエヌエー，インコーポレイテッド, priority 2005, dated 2007).
